Results published in ChEMBL document CHEMBL6096738, “Optimization of Single Relaxin B-Chain Peptide Leads to the Identification of R2R01, a Potent, Long-Acting RXFP1 Agonist for Cardiovascular and Renal Diseases” (J Med Chem, 2025).
Starred links: 1 amine or outer side, 2 acyl side, 3 side chain; linkers in the order of their positions; H or OH if unused. Non-standard residues stand in square brackets, D forms with d. Residues, ends and D or L forms follow the SMILES beside them. Groups on a side chain read outwards from the residue. *: point of attachment. X2 = CCCCCCCCCCCCCCCC(=O)N[C@@H](CCC(=O)N[C@@H](CCC(=O)N[C@@H](CCC(=O)NCCCOCCOCCOCCCNC(=O)CCC(=O)NCCCOCCOCCOCCCNC(=O)CCC(=O)NCCCOCCOCCOCCCN*)C(=O)O)C(=O)O)C(=O)O; X1 = CCCCCCCCCCCCCCCC(=O)N[C@@H](CCC(=O)N[C@@H](CCC(=O)N[C@@H](CCC(=O)NCCCOCCOCCOCCCNC(=O)CCC(=O)NCCCOCCOCCOCCCN*)C(=O)O)C(=O)O)C(=O)O; γGlu = O=C(O)[C@H](CCC(=O)[*:2])N[*:1]; Palmitoyl = CCCCCCCCCCCCCCCC(=O)*; Suc = O=C(CCC(=O)[*:2])[*:1]; αMeK = C[C@](N)(CCCCN)C(=O)O; Nle = CCCC[C@H](N)C(=O)O; AEEA = NCCOCCOCC(=O)O; Aib = CC(C)(N)C(=O)O

Key:
[1] = Half-life in female Gottingen pig at 1 mg/kg, iv measured after 198 hrs by LC-HRMS analysis; format: ADME, organism-based, Sus scrofa; details: in vivo
[2] = Drug metabolism in male Beagle dog assessed as fatty acid chain oxidation mediated M+16 metabolite formation by measuring metabolite to parent compound AUC ratio at 1 mg/kg, iv measured after 198 hrs by LC-HRMS analysis; format: ADME, organism-based, Canis lupus familiaris; details: in vivo
[3] = Bioavailability in male Sprague-Dawley rat at 3 mg/kg, sc measured after 198 hrs by LC-HRMS analysis; format: ADME, organism-based; details: in vivo
[4] = tested on: Rattus norvegicus; test: Chronotropic effect in pithed male Sprague-Dawley rat assessed as increase in heart rate at 0.3 mg/kg, iv measured after 60 mins relative to control; format: functional; details: 1 h
[5] = AUC (0 to 24 hrs) in male Sprague-Dawley rat at 1 mg/kg, iv measured after 198 hrs by LC-HRMS analysis; format: ADME, organism-based; details: in vivo
[6] = Bioavailability in female Gottingen pig at 1 mg/kg, sc measured after 198 hrs by LC-HRMS analysis; format: ADME, organism-based, Sus scrofa; details: in vivo
[7] = molecular target: T1, Relaxin receptor 1 (Homo sapiens, UniProt Q9HBX9); test: Agonist activity at human RXFP1 expressed in 2%HSA treated human OVCAR-5 cells assessed as intracellular cAMP accumulation incubated for 30 mins with 2% HSA pretreated compound by HTRF assay; format: functional, cell-based
T1 sequence (Q9HBX9 whole entry): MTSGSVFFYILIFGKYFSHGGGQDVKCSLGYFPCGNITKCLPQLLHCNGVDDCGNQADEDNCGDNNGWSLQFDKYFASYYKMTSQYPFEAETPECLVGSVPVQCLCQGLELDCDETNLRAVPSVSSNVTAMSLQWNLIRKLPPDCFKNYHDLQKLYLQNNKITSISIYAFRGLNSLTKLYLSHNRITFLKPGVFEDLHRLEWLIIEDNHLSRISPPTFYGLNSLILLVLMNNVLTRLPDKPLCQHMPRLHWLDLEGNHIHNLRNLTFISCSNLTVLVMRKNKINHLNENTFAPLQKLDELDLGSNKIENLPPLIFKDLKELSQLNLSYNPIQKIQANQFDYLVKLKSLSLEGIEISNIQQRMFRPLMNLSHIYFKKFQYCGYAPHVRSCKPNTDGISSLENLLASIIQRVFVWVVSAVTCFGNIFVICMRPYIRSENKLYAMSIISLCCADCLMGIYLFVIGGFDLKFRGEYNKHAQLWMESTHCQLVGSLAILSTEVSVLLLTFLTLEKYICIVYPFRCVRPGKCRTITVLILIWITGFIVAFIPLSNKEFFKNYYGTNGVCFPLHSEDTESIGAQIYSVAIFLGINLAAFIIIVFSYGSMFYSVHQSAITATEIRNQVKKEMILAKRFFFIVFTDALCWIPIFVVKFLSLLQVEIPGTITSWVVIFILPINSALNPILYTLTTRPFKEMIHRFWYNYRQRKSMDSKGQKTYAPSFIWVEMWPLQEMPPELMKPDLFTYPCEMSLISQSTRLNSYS

[8] = molecular target: T2, Relaxin receptor 1 (Homo sapiens) (UniProt Q9HBX9); test: Agonist activity at human RXFP1 expressed in human OVCAR-5 cells assessed as intracellular cAMP accumulation by measuring maximal efficacy incubated for 30 mins by HTRF assay relative to control; format: functional, cell-based; details: filed as agonist
T2 sequence (whole entry): T1 sequence (Q9HBX9 whole entry)

[9] = molecular target: T1, Relaxin receptor 1; test: Agonist activity at human RXFP1 expressed in human OVCAR-5 cells assessed as intracellular cAMP accumulation incubated for 30 mins by HTRF assay; format: functional, cell-based
[10] = Half-life in male Beagle dog at 1 mg/kg, iv measured after 198 hrs by LC-HRMS analysis; format: ADME, organism-based, Canis lupus familiaris; details: in vivo
[11] = Induction of mast cell degranulation in human LAD2 cells assessed as beta-hexosaminidase release by measuring 4-methylumbelliferyl N-acetyl-beta-D-glucosaminide hydrolysis incubated for 30 mins by plate reader analysis; format: toxicity, cell-based; details: probe 4-methylumbelliferyl N-acetyl-beta-D-glucosaminide
[12] = Induction of mast cell degranulation in human LAD2 cells assessed as beta-hexosaminidase release by measuring maximal efficacy of 4-methylumbelliferyl N-acetyl-beta-D-glucosaminide hydrolysis at 33 uM incubated for 30 mins by plate reader analysis relative to control; format: toxicity, cell-based; details: probe 4-methylumbelliferyl N-acetyl-beta-D-glucosaminide
[13] = molecular target: T2, Relaxin receptor 1 (Homo sapiens); test: Agonist activity at human RXFP1 expressed in 2%HSA treated human OVCAR-5 cells assessed as intracellular cAMP accumulation by measuring maximal efficacy incubated for 30 mins with 2% HSA pretreated compound by HTRF assay relative to control; format: functional, cell-based; details: filed as agonist
[14] = Half-life in male Sprague-Dawley rat at 1 mg/kg, iv measured after 198 hrs by LC-HRMS analysis; format: ADME, organism-based; details: in vivo
[15] = Cmax in male Sprague-Dawley rat at 3 mg/kg, sc measured after 198 hrs by LC-HRMS analysis; format: ADME, organism-based; details: in vivo
[16] = Drug metabolism in female Gottingen pig assessed as fatty acid chain oxidation mediated M+16 metabolite formation by measuring metabolite to parent compound AUC ratio at 1 mg/kg, iv measured after 198 hrs by LC-HRMS analysis; format: ADME, organism-based, Sus scrofa; details: in vivo
[17] = Drug metabolism in male Sprague-Dawley rat assessed as fatty acid chain oxidation mediated M+16 metabolite formation by measuring metabolite to parent compound AUC ratio at 1 mg/kg, iv measured after 198 hrs by LC-HRMS analysis; format: ADME, organism-based; details: in vivo
[18] = tested on: Rattus norvegicus; test: Chronotropic effect in telemetered male Sprague-Dawley rat assessed as increase in heart rate administered subcutaneously and measured after 48 hrs; format: functional, organism-based; details: dose 0.1-1 mg/kg, route sc
[19] = Drug metabolism in male Sprague-Dawley rat assessed as fatty acid chain oxidation mediated M+16 metabolite formation by measuring metabolite to parent compound AUC ratio at 3 mg/kg, sc measured after 198 hrs by LC-HRMS analysis; format: ADME, organism-based; details: in vivo

| Compound | half-life [1] [h] | Ratio AUC [2] | bioavailability [3] [%] | Activity [4] [%] | AUC(0-t) at 198 h [5] [µM·h] | bioavailability [6] [%] | EC50 [7] [nM] | Emax [8] [%] | EC50 [9] [nM] | half-life [10] [h] | EC50 at 30 min [11] [nM] | Emax at 0.5 h, 33 µM [12] [%] | Emax [13] [%] | half-life [14] [h] | Cmax [15] [nM] | Ratio AUC [16] | Ratio AUC [17] | Activity [18] | Ratio AUC [19] |
| --- | --- | --- | --- | --- | --- | --- | --- | --- | --- | --- | --- | --- | --- | --- | --- | --- | --- | --- | --- |
| CCCCCCCCCCCCCCCC(=O)N[C@@H](CCC(=O)N[C@@H](CCC(=O)N[C@@H](CCC(=O)NCCCOCCOCCOCCCNC(=O)CCC(=O)NCCCOCCOCCOCCCNC(=O)CCC(=O)NCCCC[C@H](NC(=O)CNC(=O)[C@H](CCC(=O)O)NC(=O)C(C)(C)NC(=O)C(C)(C)NC(=O)[C@@H](NC(=O)[C@H](CCCCNC(C)=O)NC(=O)[C@H](C)NC(=O)[C@H](CCCNC(=N)N)NC(=O)[C@@H](NC(=O)[C@H](CCCCN)NC(=O)[C@H](CCC(=O)O)NC(=O)[C@H](CCCNC(=N)N)NC(=O)CNC(=O)[C@H](CCC(=O)O)NC(=O)[C@H](CC(C)C)NC(C)=O)C(C)C)[C@@H](C)CC)C(=O)N[C@@H](CO)C(=O)N[C@H](C(=O)N[C@@H](Cc1c[nH]c2ccccc12)C(=O)N[C@@H](CO)C(=O)NC(C)(C)C(=O)N[C@@H](CCCNC(=N)N)C(=O)N[C@@H](CCCCN)C(=O)N[C@@H](CCCCNC(C)=O)C(N)=O)[C@@H](C)O)C(=O)O)C(=O)O)C(=O)O (Ac-LEGREKVRAK(Ac)I[Aib][Aib]EGK([Suc-X1])STWS[Aib]RKK(Ac)-NH2) | 27.2 | 0.33 | 69 | 31.4 | 19.5 | 87 | 145 | 95 | 1.28 | 9.2 | 5500 | 58 | 81 | 8.7 | 2000 | 0.32 |  |  |  |
| CCCCCCCCCCCCCCCC(=O)N[C@@H](CCC(=O)N[C@@H](CCC(=O)N[C@@H](CCC(=O)NCCCOCCOCCOCCCNC(=O)CCC(=O)NCCCOCCOCCOCCCNC(=O)CCC(=O)NCCCOCCOCCOCCCNC(=O)CCC(=O)NCCCC[C@H](NC(=O)CNC(=O)[C@H](CCC(=O)O)NC(=O)C(C)(C)NC(=O)C(C)(C)NC(=O)[C@@H](NC(=O)[C@H](CCCCNC(C)=O)NC(=O)[C@H](C)NC(=O)[C@H](CCCNC(=N)N)NC(=O)[C@@H](NC(=O)[C@H](CCCCN)NC(=O)[C@H](CCC(=O)O)NC(=O)[C@H](CCCNC(=N)N)NC(=O)CNC(=O)[C@H](CCC(=O)O)NC(=O)[C@H](CC(C)C)NC(C)=O)C(C)C)[C@@H](C)CC)C(=O)N[C@@H](CO)C(=O)N[C@H](C(=O)N[C@@H](Cc1ccccc1)C(=O)N[C@@H](CO)C(=O)N[C@@](C)(CCCCN)C(=O)N[C@@H](CCCNC(=N)N)C(=O)N[C@@H](C)C(=O)N[C@@H](CCCCNC(C)=O)C(N)=O)[C@@H](C)O)C(=O)O)C(=O)O)C(=O)O (Ac-LEGREKVRAK(Ac)I[Aib][Aib]EGK([Suc-X2])STFS[αMeK]RAK(Ac)-NH2) | 22.3 | 0.11 |  | 40.3 |  | 74 | 26.5 | 97 |  | 8.8 | > 33000 | 48 | 86 | 7.8 |  | 0.25 | < 0.01 | Dose-dependent-effect |  |
| CCCCCCCCCCCCCCCC(=O)N[C@@H](CCC(=O)N[C@@H](CCC(=O)N[C@@H](CCC(=O)NCCOCCOCC(=O)NCCOCCOCC(=O)NCCOCCOCC(=O)NCCCC[C@H](NC(=O)[C@H](CCCCNC(C)=O)NC(=O)[C@H](CCCCN)NC(=O)[C@H](CCCNC(=N)N)NC(=O)C(C)(C)NC(=O)[C@H](CO)NC(=O)[C@H](Cc1c[nH]c2ccccc12)NC(=O)[C@@H](NC(=O)[C@H](CO)NC(=O)[C@H](CCCC)NC(=O)CNC(=O)[C@H](CCC(=O)O)NC(=O)C(C)(C)NC(=O)C(C)(C)NC(=O)[C@@H](NC(=O)[C@H](CCCCNC(C)=O)NC(=O)[C@H](C)NC(=O)[C@H](CCCNC(=N)N)NC(=O)[C@@H](NC(=O)[C@H](CCCCN)NC(=O)[C@H](CCC(=O)O)NC(=O)[C@H](CCCNC(=N)N)NC(=O)CNC(=O)[C@H](CCC(=O)O)NC(=O)[C@H](CC(C)C)NC(C)=O)C(C)C)[C@@H](C)CC)[C@@H](C)O)C(N)=O)C(=O)O)C(=O)O)C(=O)O (Ac-LEGREKVRAK(Ac)I[Aib][Aib]EG[Nle]STWS[Aib]RKK(Ac)K([AEEA-AEEA-AEEA-γGlu-γGlu-γGlu-Palmitoyl])-NH2) | 12.9 | 0.99 |  |  |  |  | 87 | 80 | 1 | 4.4 | 3900 | 67.2 | 96 | 5.7 |  | 0.7 |  |  | 0.025 |
